Data from US9884812B2, “Use of DDX3X inhibitors for the treatment of pneumovirus infections” (priority 2014, dated 2018).
Converted amounts (≈) assume the structure as drawn. Read-outs that look alike come from different tables or passages of the source.

Tests used:
HEp2 cells [1] = assay: MTT toxicity assay; assay type: cell-based; details: for Appearance of cell monolayers: compared with carrier controls
Description: All experiments shown were carried out in HEp2 cells. Cells were grown in 96 well plates overnight as previously described in 10% FCS medium to 95% confluence level. The medium was aspirated off and replaced with 200ul media with 2% FCS +/− compounds in DMSO carrier as indicated at an identical dilution series to that used in the plaque assays. 8 wells were used per compound/carrier alone dilution. An additional 2 rows of 8 cells were grown in medium alone for reference and subsequently 8 would be used as a cell death control as described below. Cells were incubated at 33° C. as indicated. If the incubation period exceeded 4 days the medium was replaced with the appropriate amount of fresh medium plus compound.
MTT assays were commenced 4 hours before the time period expired. Here 20 uL of MTT [(3-{4,5-dimethylthiazol-2-yl}-2,5-diphenyltetrazolium bromide)] solution (7.5 mg/ml in
PBS) was added. […] The cells were placed back in the incubator at 33° C. After 4 hours, 100 μL of a stop solution (50% formamide, 20% w/v SDS) was added and pipetted to dissolve the substrate. Plates were then left overnight to allow the bubbles to disappear and the OD was recorded at 595 nm. Following subtraction of background solution colour (cell death control), the optical density was expressed as a percentage compared to the DMSO control on each appropriate plate.

PVM (strain 15) = assay: Plaque inhibition assay, PVM; assay type: cell-based, pneumonia virus of mice; details: for Plaque size: PVM plaque assay; for IC50: murine pneumonia virus, PVM, HEp2 cells
Description: (§1) An identical assay procedure was carried out for hRSV (strain A2) bovine RS (strain Snook) and PVM (strain 15). Virus stocks were diluted 10 fold in GMEM (Invitrogen) so that the wells containing cells received sufficient virus to generate approximately 2000, 200 and 20 plaques per well.
(§2) Cells of a standard cell line known to support pneumovirus replication (typically HEp2 or BSC1 cells) were grown in standard 12 well plates at 37° C. in an atmosphere of 5% (v/v) CO2 until confluent. Medium was aspirated from the cells and replaced with 200 μl aliquots of virus. Aliquots were prepared by diluting virus stocks 10-fold in GMEM (Invitrogen) as described above with no FCS. A mock (no virus) was also set up to test cell viability. The virus was incubated with the cells for 1 hour at 33° C. with gentle rocking every 5-10 minutes. The inocula were removed and 2 ml of overlay medium was added. Overlay medium was either test (plus compound) or control (medium alone or medium containing DMSO). The plates were incubated at 33° C. for 4-8 days to allow plaques to develop as indicated. A volume of 1 ml of additional overlay medium (containing the test compound as appropriate) was added every 3 days. All virus dilutions were carried out with each concentration of test compound, or treated as controls, and each was carried out in triplicate.
(§3) Following incubation, cells were fixed by addition of an equal volume of 4% (v/v) glutaraldehyde (Sigma) in PBS with further incubation for a minimum of 2 hours. The fixing solution was washed off under a slow flowing stream of water and 1 ml of crystal violet (0.075% w/v: Sigma) was added and left for 20 minutes at room temperature. The crystal violet was removed and the fixed cell monolayers washed. Plates were air dried. Plaques counts were recorded from wells with >20 and <200 in number. These numbers provide the most robust statistical reliability for viable plaque counts.
(§4) Compounds 1, 4 and 6 were also tested against bovine RSV and pneumonia virus of mice (PVM).
A full plaque assay was carried out for compound 4 using HEp2 cells, with assays of 5 days and 6 days after incubation.

RSV = assay: 96 well plate TCID50 (cellular RSV TCID50 assay); assay type: cell-based; details: at >10 μM
Description: (§5) This method provides a rapid approach to initially screen compounds and was developed as an increased number of compounds were synthesised. Cells of a standard cell line known to support pneumovirus replication (typically HEp2 or BSC1 cells) were grown to 95% confluence in a 96 well plate. Virus was then added over 5 different half log dilutions starting at a multiplicity of infection of 0.02 plus mock control. Three dilutions of compound plus a DMSO control were screened per plate. […] Identical plate repeats for each compound dilution were fixed in subsequent days as indicated.
Stained plates were read at 595 nm, higher optical density (OD) readings indicate more viable cells remain.

Bovine RSV = assay: Plaque inhibition assay, bovine RSV; assay type: cell-based, bovine respiratory syncytial virus; details: for Plaque size: bRSV plaque assay; for IC50: bovine RSV, 6-day assay, HEp2 cells
Description: as §1, §2, §3, §4
The compounds were tested with a 6-day assay using HEp2 cells.

[2] = Solubility in cell medium; assay type: physicochemical; details: for Solubility behaviour in cell medium: at 100 μM; for Solubility in cell medium: solution of ligand in DMSO (20 mM) diluted in cell media to 100 μM, scale from 'very poor' (almost insoluble) to 'very good' (freely soluble over extended periods at 4° C.)
hRSV (strain A2) = assay: Plaque inhibition assay, hRSV; assay type: cell-based, human respiratory syncytial virus; details: for Plaque size relative to DMSO control: hRSV plaque assay; for IC50: human respiratory syncytial virus, read-out: IC50 (plaque number vs DMSO control)
Description: Example: Plaque inhibition assay
as §1
The overlay medium also contained the compound to be tested at appropriate concentrations. Typically the 6 concentrations of the test compounds used were: 100 μM, 31.6 μM, 10 μM, 3.16 μM, 1 μM and 0.316 μM.
Stocks of the test compounds were prepared in DMSO (Sigma) (carrier). Each stock compound was diluted 1 in 200 in overlay medium to give dilutions stated above.
as §2, §3
This experimental approach screens the ability of compounds to block the formation of plaques.

HEp2 or BSC1 cells = assay: Toxicity to cells in the TCID50 screen (mock control); assay type: cell-based; details: cellular RSV TCID50 assay tables
Description: as §5, with “Cells of a standard cell line known to support pneumovirus replication (typically HEp2 or BSC1 cells) were grown to 95% confluence in a 96 well plate.” left out

HEp2 cells [3] = assay: Toxicity observed in plaque assay, HEp2 cells; assay type: cell-based
Description: as §2

BSC1 cells = assay: Toxicity observed in plaque assay, BSC1 cells; assay type: cell-based; details: at 100 μM
Description: as §2

[4] = Bovine orthopneumovirus, HEp-2, 144 h, read-out: IC50
[5] = HEp-2, 120 h, hRSV, HEp2 cells, Day 5

| Structure (SMILES) | Plaque size (PVM (strain 15)) | Plaque size (Bovine RSV) | Solubility behaviour in cell medium [2] | Solubility in cell medium [2] | Plaque size relative to DMSO control (hRSV (strain A2)) | Toxicity (HEp2 or BSC1 cells) | Appearance of cell monolayers (HEp2 cells [1]) | IC50 (hRSV (strain A2); [5]) | other results |
| --- | --- | --- | --- | --- | --- | --- | --- | --- | --- |
| Cc1ccccc1NC(=O)Nc1cccc([N+](=O)[O-])c1 [Compound 1, 3-(2-methylphenyl)-1-(3-nitrophenyl)urea] | significantly reduce the size of plaques | significantly reduce the size of plaques | appearance of insolublity | poor | significantly reduce the size of plaques | toxic at 32 μM | – | – | Sensitivity in MTT assay (HEp2 cells [1]; days 3 and 4, disappeared after 5 days): increased sensitivity; Concentration above which inhibition of activity is seen (MTT) (HEp2 cells [1]; over the time course): above 10 μM; Activity in the TCID50 assay at higher concentration (RSV): no increase in activity; IC50 (Bovine RSV): precipitated out before 50% reduction was seen; solubility ([2]; cell medium, aqueous buffer, kinetic from dmso stock, read-out: Upper limit of soluble concentration): 5 to 10 µM (≈ 1.36 to 2.71 µg/mL); Plaque size relative to DMSO control (hRSV (strain A2); listed as compound 1): smaller than in the DMSO control |
| CSc1cccc(NC(=O)Nc2ccccc2C)c1 [Compound 4, 1-(2-methylphenyl)-3-[3-(methylsulfanyl)phenyl]urea] | significantly reduce the size of plaques | significantly reduce the size of plaques | – | good | significantly reduce the size of plaques | some toxicity at 100 μM | appeared intact | 4.1 µM | IC50 (PVM (strain 15); HEp-2, 120 h, day 5): 32 µM; IC50 (PVM (strain 15); HEp-2, 144 h, day 6): 100 µM; IC50 (Bovine RSV; [4]): 80 µM; Toxicity in plaque assay (HEp2 cells [3]; at 10 μM): No obvious toxicity; Toxicity in plaque assay (HEp2 cells [3]; at 31.6 μM): to some degree; Toxicity in plaque assay (HEp2 cells [3]; at 100 μM): showed toxicity; IC50 (hRSV (strain A2); HEp-2, 144 h, hRSV, HEp2 cells, Day 6): 8.5 µM; IC50 (hRSV (strain A2); HEp-2, 168 h, hRSV, HEp2 cells, Day 7): 15 µM |
| Cc1ccccc1NC(=O)Nc1ccc(C#N)cc1 [Compound 6, 1-(4-cyanophenyl)-3-(2-methylphenyl)urea] | significantly reduce the size of plaques | significantly reduce the size of plaques | – | good | significantly reduce the size of plaques | low | appeared intact | 10 µM | IC50 (Bovine RSV; [4]): 15 µM; IC50 (plaque number vs DMSO control) (hRSV (strain A2); hRSV, HEp2 cells, Day 6): 50% reduction was not reached; IC50 (plaque number vs DMSO control) (hRSV (strain A2); hRSV, HEp2 cells, Day 7): 50% reduction was not reached |
| CSc1cccc(NC(=O)NCCCOCCOCCOCCCNC(=O)Nc2cccc(SC)c2)c1 [Compound 36, 1-[3-(methylsulfanyl)phenyl]-3-[3-(2-{2-[3-({[3-(methylsulfanyl)-phenyl]carbamoyl}amino)propoxy]ethoxy}ethoxy)propyl]urea] | – | – | – | good | – | – | – | – | melting point: 106 to 108 °C |
| CSc1ccc(NC(=O)NCCCOCCOCCOCCCNC(=O)Nc2ccc(SC)cc2)cc1 [Compound 37, 1-[4-(methylsulfanyl)phenyl]-3-[3-(2-{2-[3-({[4-(methylsulfanyl)-phenyl]carbamoyl}amino)propoxy]ethoxy}ethoxy)propyl]urea] | – | – | some signs of precipitating out of solution | good | – | toxic at 50 μM | appeared intact | 17.5 µM | Toxicity in plaque assay (HEp2 cells [3]; at 100 μM): showed toxicity |
| Cc1ccccc1NC(=O)Nc1cccc(Cl)c1 [Compound 39, 1-(3-chlorophenyl)-3-(o-tolyl)urea] | – | – | moderately soluble | Moderate at 100 μM | reduction in plaque numbers (as shown) and size | Some toxicity at 100 μM | – | – | Toxicity in plaque assay (BSC1 cells): some toxicity; IC50 (hRSV (strain A2); BSC-1, 96 h, hRSV, BSC1 cells, 4 day assay): 16.5 µM |
| Cc1ccccc1NC(=O)Nc1cccc(C(F)(F)F)c1 [Compound 40, 1-(o-tolyl)-3-(3-(trifluoromethyl)phenyl)urea] | – | – | – | Good | – | Low | – | – | Toxicity in plaque assay (BSC1 cells): low toxicity; Inhibition of plaque formation (hRSV (strain A2); hRSV, BSC1 cells, 4 day assay): moderate inhibition |
